Measured values taken from the supplement of paper PMC10307832.

How the values were obtained:
Experiment in all cases: relative viability (nuclei count vs DMSO), 5 days (fraction); higher = more cells survive
Vandetanib + Alpelisib = compound: COc1cc2/c(=N/c3ccc(Br)cc3F)nc[nH]c2cc1OCC1CCN(C)CC1 [Vandetanib] + Cc1nc(NC(=O)N2CCC[C@H]2C(N)=O)sc1-c1ccnc(C(C)(C)C(F)(F)F)c1 [Alpelisib] (partner 2 µM)
Summary of the method: (§1)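 Dosing by pin tool came one day after lung cancer cell lines were seeded in 1536-well plates, using either one drug or a fixed anchor-drug dose plus five library-drug doses (not always all listed) in √10 steps. After 5 days, nuclei were counted on 4× images. Relative viability is treated-well nuclei count divided by vehicle-well nuclei count, and values are medians of duplicate plates.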

[1] = compound: C1=CC=C2C(=C1)N=C(S2)C(C#N)C3=NC(=NC=C3)NCCC4=CN=CC=C4 + Nc1ncn([C@H]2C[C@H](O)[C@@H](CO)O2)c(=O)n1 [Decitabine] (partner 2 µM)
Summary of the method: as §1

[2] = compound: C1=CC=C2C(=C1)N=C(S2)C(C#N)C3=NC(=NC=C3)NCCC4=CN=CC=C4 + Cc1nc(NC(=O)N2CCC[C@H]2C(N)=O)sc1-c1ccnc(C(C)(C)C(F)(F)F)c1 [Alpelisib] (partner 2 µM)
Summary of the method: as §1

CUDC-101 + Tozasertib = compound: C#Cc1cccc(Nc2ncnc3cc(OC)c(OCCCCCCC(=O)NO)cc23)c1 [CUDC-101] + Cc1cc(Nc2cc(N3CCN(C)CC3)nc(Sc3ccc(NC(=O)C4CC4)cc3)n2)n[nH]1 [Tozasertib] (partner 0.1 µM)
Summary of the method: as §1

| Cell Line | relative viability (Vandetanib + Alpelisib; first compound 0.02 µM) | relative viability (Vandetanib + Alpelisib; first compound 0.06325 µM) | relative viability (Vandetanib + Alpelisib; first compound 0.2 µM) | relative viability (Vandetanib + Alpelisib; first compound 0.6325 µM) | relative viability (Vandetanib + Alpelisib; first compound 2 µM) | relative viability ([1]; first compound 0.005 µM) | relative viability ([1]; first compound 0.01581 µM) | relative viability ([1]; first compound 0.05 µM) | relative viability ([1]; first compound 0.1581 µM) | relative viability ([1]; first compound 0.5 µM) | relative viability ([2]; first compound 0.005 µM) | relative viability ([2]; first compound 0.01581 µM) | relative viability ([2]; first compound 0.05 µM) | relative viability ([2]; first compound 0.1581 µM) | relative viability ([2]; first compound 0.5 µM) | relative viability (CUDC-101 + Tozasertib; first compound 0.01 µM) | relative viability (CUDC-101 + Tozasertib; first compound 0.03162 µM) | relative viability (CUDC-101 + Tozasertib; first compound 0.1 µM) | relative viability (CUDC-101 + Tozasertib; first compound 0.3162 µM) | relative viability (CUDC-101 + Tozasertib; first compound 1 µM) |
| --- | --- | --- | --- | --- | --- | --- | --- | --- | --- | --- | --- | --- | --- | --- | --- | --- | --- | --- | --- | --- |
| LXF-289 | 1.05 | 1 | 1.02 | 1.03 | 1.04 | 0.345 | 0.419 | 0.4 | 0.405 | 0.336 | 0.979 | 1.15 | 1.04 | 1.12 | 0.998 | 0.168 | 0.184 | 0.219 | 0.211 | 0.143 |
| NCI-H23 | 0.609 | 0.613 | 0.566 | 0.772 | 0.532 |  | 0.306 | 0.329 | 0.323 | 0.338 |  | 0.74 | 0.582 | 0.845 | 0.725 | 0.34 | 0.315 | 0.288 | 0.384 | 0.574 |
| NCI-H322M | 0.772 | 0.746 | 0.777 | 0.709 | 0.866 | 0.579 | 0.773 | 0.775 | 0.711 | 0.736 | 0.825 | 0.77 | 0.68 | 0.899 | 0.709 | 0.477 | 0.476 | 0.45 | 0.413 | 0.339 |
| NCI-H358 | 0.741 | 0.733 | 0.175 | 0.533 | 0.385 | 0.234 | 0.21 | 0.221 | 0.216 | 0.206 | 0.603 | 0.795 | 0.802 | 0.981 | 0.744 | 0.103 | 0.117 | 0.127 | 0.101 | 0.114 |
| NCI-H441 | 0.795 | 0.535 | 0.896 | 0.848 | 0.728 | 0.267 | 0.303 | 0.252 | 0.246 | 0.239 |  | 0.623 | 0.803 | 1.27 | 0.487 | 0.536 | 0.683 | 0.645 | 0.599 | 0.435 |
| NCI-H460 | 0.503 | 0.556 | 0.0233 | 0.434 | 0.419 |  | 0.612 | 0.529 | 0.592 | 0.464 |  | 0.508 | 0.503 | 0.579 | 0.309 | 0.379 | 0.393 | 0.396 | 0.629 | 0.373 |
| NCI-H520 | 0.832 | 0.924 | 1.04 | 0.868 | 0.921 | 0.46 | 0.449 | 0.482 | 0.616 | 0.513 | 0.508 | 1.09 | 0.793 | 1.13 | 0.665 | 0.443 | 0.434 | 0.449 | 0.401 | 0.304 |
| NCI-H596 | 0.515 | 0.518 | 0.618 | 0.593 | 0.453 | 0.711 | 1 | 1 | 0.919 | 0.985 | 0.401 | 0.576 | 0.44 | 0.541 | 0.384 | 0.632 | 0.716 | 0.871 | 0.917 | 0.819 |
| NCI-H647 | 1.03 | 1.1 | 1.11 | 1.1 | 0.786 | 0.356 | 0.442 | 0.33 | 0.353 | 0.284 |  | 1.18 | 0.876 | 1.41 | 0.599 | 0.235 | 0.338 | 0.266 | 0.223 | 0.211 |
| NCI-H650 | 1.13 | 0.998 | 1.08 | 1.04 | 0.905 | 0.316 | 0.356 | 0.319 | 0.338 | 0.325 | 0.859 | 1.22 | 1.04 | 1.18 | 1.2 | 0.844 | 0.733 | 0.639 | 0.599 | 0.369 |
| NCI-H661 | 0.602 | 0.565 | 0.604 | 0.441 | 0.582 | 0.467 | 0.52 | 0.529 | 0.622 | 0.589 | 0.632 | 0.482 | 0.61 | 0.841 | 0.798 | 0.356 | 0.331 | 0.362 | 0.342 | 0.248 |
| NCI-H727 | 0.619 | 0.56 | 0.405 | 0.496 | 0.322 | 0.992 | 0.879 | 0.983 | 1 | 0.786 | 0.508 | 0.508 | 0.566 | 0.565 | 0.409 | 0.56 | 0.556 | 0.56 | 0.673 | 0.407 |
| NCI-H838 | 0.98 | 0.957 | 0.991 | 1.04 | 1.05 | 0.435 | 0.461 | 0.425 | 0.47 | 0.445 | 0.841 | 0.965 | 0.959 | 0.961 | 0.852 | 0.265 | 0.266 | 0.329 | 0.265 | 0.264 |
| NCI-H1355 | 0.811 | 0.772 | 0.466 | 0.958 | 0.822 | 0.367 | 0.376 | 0.381 | 0.358 | 0.366 | 0.852 | 0.901 | 0.823 | 0.883 | 0.633 | 0.518 | 0.539 | 0.5 | 0.544 | 0.384 |
| NCI-H1395 | 1.03 | 1.28 | 1.22 | 1.04 | 0.998 | 0.721 |  | 0.732 | 0.769 | 0.742 | 1.14 |  | 0.939 | 1.04 | 1.21 | 0.809 | 0.717 | 0.747 | 0.744 | 0.627 |
| NCI-H1437 | 0.922 | 0.965 | 0.94 | 1 | 0.902 | 0.484 | 0.6 | 0.508 | 0.602 | 0.548 | 0.797 | 1.11 | 0.962 | 1.09 | 0.695 | 0.41 | 0.332 | 0.41 | 0.429 | 0.361 |
